Reference: patent US12385042B2, “Cell-penetrating peptides” (VECTIOPEP OÜ, priority 2019, dated 2025)
Where a SMILES comes first, the peptide text is derived from it. Bridges are numbered along the chain shown (N, C = ends). Roman numbers before positions name the chains, in order. [ ]: non-standard residue; d: D form. The star is where a group is joined. Stearoyl = CCCCCCCCCCCCCCCCCC(=O)*; Orn = NCCC[C@H](N)C(=O)O

Assays:
[1] = tested on: U87 MG-luc2 human glioma cells, stably expressing luc2; experiment: Luciferase gene downregulation by CPP/siRNA (siLuc2) complexes; format: cell-based; settings: for Red (%) (reduction, based on remaining luminescence on U87 cells post-treatment): siRNA against luciferase
In short: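 U87-luc2 cells in serum-containing medium got peptide/siLuc2 complexes formed in water (pH 5.3-6.3, MR 40:1, 1 h RT) at 25 nM siRNA for 4 h at 37 °C, then 20 h more. Lysate luminescence normalized to protein; in other runs, MR30/10 nM in HEPES-FBS, or varied MR at 50 nM, vs untreated (100%).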

[2] = tested on: CHO stably expressing green fluorescent protein (GFP); experiment: GFP gene downregulation by CPP/siGFP complexes (lysate fluorescence, FACS, confocal); format: cell-based; settings: for cells with downregulated reporter gene (GFP signal below threshold), FACS: CHO-GFP, CPP/siGFP complexes; for downregulation of GFP (average, cell lysate fluorescence): siGFP 100 nM
Experimental: For assessing the siRNA mediated RNAi, CHO-GFP or U87-luc2 cells (5×10^5 cells per well) were seeded on a 24-well plate a day prior to the experiment and grown in serum containing media. On experiment day, prior to adding pre-formed complexes ( 1/10th of the final volume per well), media was replaced with fresh serum containing medium.
For complex formation, peptide was mixed with luc2 siRNA (sense 5′-[…]-3′ (SEQ ID NO:7), antisense 5′-[…] 3′ (SEQ ID NO:8), Metabion, Germany) or with siRNA against GFP (5′-[…] (SEQ ID NO:9), 3′-[…] (SEQ ID NO:10)) in mQ water (pH 5.3-6.3) using peptide to siRNA molar ratios (MR is the ratio of peptide to siRNA) […] and incubated at RT for 1 h. For siLuc2, the final concentration in media was 25 nM and for siGFP 100 nM. Cells were co-incubated with complexes for 4 h (37° C., 5% CO2), thereafter fresh serum containing media was added and followed by further incubation (20 h for siLuc2 or 44 h for siGFP complexes). Luciferase gene downregulation was measured from cell lysates with Promega luciferase assay system (Promega, Sweden) in combination with GLOMAX 96 microplate luminometer equipped with GLOMAX 1.9.2 software (Promega). GFP was measured after treatment from cell lysates on black 96-well plates by measuring total fluorescence (Symergy MX, BioTek Instruments, USA equipped with Gen5 1.10 software). The results were normalized to the protein content of each sample (DC Protein Assay, BioRad, USA).
For flow cytometry analysis (FACS) analysis CHO-GFP cells were seeded and treated as described previously. After incubation, cells were washed with 1× PBS and detached from plates with trypsin-EDTA (0.25%), and re-suspended in PBS supplemented with FBS (5%) and transferred to transparent U-bottom 96-well plates. FACS was carried out with BD LSR II flow cytometer (BD Biosciences, San Jose, CA, USA) equipped with a 488 nm argon laser. Population of viable cells was determined from scatter plot: forward scattered plot (FSC) vs. side scattered light (SSC) plot. A minimum of 10,000 events from the viable cell population per sample were analyzed using BD FACS Diva software. Results are shown as the population with GFP signal lower than that of 0.1% of untreated cells.
For confocal microscopy 2×10^5 cells per chamber were seeded on NUNC 8-chamber plates. After treatment with complexes (25 ul of pre-formed CPP/siRNA complexes added to cells in 225 ul serum containing media), incubated (48 h) and GFP florescence images of cells were captured using confocal microscope Zeiss LSM 710 and excitation at 488 nm (493-616 filter).

[3] = Fluorescent dye (PicoGreen) intercalation and heparin displacement assay of CPP/siRNA complexes; format: physicochemical; settings: for stability of complexes to heparin displacement (in words): complexes pre-formed at MR30
Experimental: Complexation of siRNA and CPPs was assessed by Quant-iT™ PicoGreen® (PG) (Thermo Fisher Scientific, USA) assay in mQ water. Complexes were prepared as described previously, following addition of diluted PG. For detection, complexes (⅕ of volume), water (3/5) and PG (1/5) working dilution was incubated for 5 minutes and fluorescence was measured by fluorimeter (λex=492 nm, λem=535 nm) (SynergyMx, BioTek). For heparin displacement, instead of water, heparin salt solution at different concentrations were used and complexes incubated at 37° C. for 30 min before addition of PG dilution. Complex formation was also confirmed by gel electrophoresis (details in section 2.11).

U87 cells = experiment: MTS toxicity assay; format: cell-based, human
Experimental: Cell proliferation was determined with the CellTiter 96® Aqueous Non-Radioactive Cell Proliferation Assay (MTS) (Promega Biotech AB, Sweden) according to the manufacturer's instructions. For this 1×10^5 U87 cells were seeded 1 day prior to experiment on transparent 96-well plates. On experiment day, media was replaced with 90 ul of fresh media and to the cells complexes formed at MR30 (both with 25 nM and 100 nM final siRNA concentrations) or free peptide at the range of 0.5-4 uM final concentrations were added. Cells were treated with complexes for 20 h. MTS was added according to the manufacturer's protocol. The absorbance of formazan product was measured at 490 nm with Tecan Sunrise microplate absorbance reader (Tecan Group Ltd, Switzerland) and percentage of viable cells was calculated using GraphPad Prism software 5.0 (Graphpad Software, CA, USA).

Proteinase K = biological target: T1, Proteinase K (Parengyodontium album, UniProt P06873); experiment: Stability of CPP/siRNA complexes to degradation by Proteinase K; format: physicochemical; settings: Proteinase K >14.4 U per well
T1 construct: purchased Thermo Scientific, USA
T1 sequence (P06873 106-384): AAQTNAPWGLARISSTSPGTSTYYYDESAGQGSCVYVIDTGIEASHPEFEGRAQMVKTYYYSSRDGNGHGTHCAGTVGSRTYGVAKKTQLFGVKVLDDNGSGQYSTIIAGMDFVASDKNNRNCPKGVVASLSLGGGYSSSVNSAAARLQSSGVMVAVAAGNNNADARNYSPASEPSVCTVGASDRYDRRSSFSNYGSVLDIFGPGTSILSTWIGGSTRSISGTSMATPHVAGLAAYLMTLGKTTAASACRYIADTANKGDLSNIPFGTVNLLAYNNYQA
Experimental: To assess protection of siRNA from enzymatic degradation, after addition of PG dilution and initial measurement to set a starting point, Proteinase K (Thermo Scientific, USA) was added (>14 U/ml, 20 ul of mixture per well containing dilution of 120 ul of enzyme in 1 ml), co-incubated with complexes and fluorescence was measured over a 10 h period.

murine red blood cells = experiment: Membrane activity assay on murine red blood cells: hemolysis; format: cell-based, mouse; settings: free peptide, up to 10 uM
Experimental: For evaluation of membrane activity of peptides, hemolysis assay was used. For this whole blood was collected from mouse (adult, BALB/c) saphenous vein into a heparinized collection tube. Blood was centrifuged (2300× g, 15 min) to separate cells (red blood cells-RBC) from the plasma. RBCs were washed according to following procedures.
RBCs were washed with 10 ml 0.9% NaCl saline and centrifuged (600× g, 15 min). Supernatant was discarded after each centrifugation. This was repeated at least 3 times. RBCs were re-suspended in 5 ml saline and distributed equally to tubes and centrifuged (600× g, 15 min). The cells were washed and re-suspended in 2× PBS with the required pH (pH 5.5-7.5). The hemoglobin content in stocks was measured after lysis of cells with equal volume of 0.1% Triton X100 supplemented with 5% glucose. The cell suspension was diluted accordingly for each pH value to obtain similar concentration range of hemoglobin in stocks. To each 100 ul of peptide solution 100 ul of 10% glucose was added, mixed, and equal volume (200 ul) of RBC in 2× PBS were added and gently mixed. Peptide solution with RBCs was incubated at 37° C. for 1 h with gentle mixing (max 300 rpm) after which samples were centrifuged to pellet intact cells from the solution. Hemoglobin from lysed cells was determined from each sample from the supernatant on transparent 96-well plates by measuring the absorbance at 540 nm.
Controls were incubated in similar manner as samples. As a non-hemolysis control mQ supplemented with glucose (0%) was used and for hemolytic control 0.1% TritonX-100 with glucose (100%) was used (cells are suspended in 2× PBS before addition). Final percent was calculated as follows: […]
For hemolytic concentration determination 2× PBS at pH 7.5 was used for incubation and 1× PBS at pH 7.5 was used for washing. Everything else is as described in previous paragraph.

SMILES | Red (%) (reduction, based on remaining luminescence on U87 cells post-treatment) ([1]; CPP/siRNA complexes) | remaining reporter activity ([1]; molar ratio 30 (MR30, peptide to siRNA), untreated cells 100%) | cells with downregulated reporter gene (GFP signal below threshold), FACS [2] | downregulation of GFP (average, cell lysate fluorescence) [2] | accessibility of siRNA in complexes (dye intercalation) ([3]; MR30, no heparin) | stability of complexes to heparin displacement (in words) [3] | concentration at which free peptide is toxic to cells (MTS) (U87 cells) | luciferase downregulation efficiency (in words) ([1]; CPP/siRNA complexes, comparison between CPPs) | downregulation of reporter gene on cells in buffer, pH dependence ([1]; HEPES buffer pH 6.0 vs 7.4, siRNA 10 nM) | IC50 ([1]; complexes formed at MR30, average, read-out: IC50 (siRNA concentration), luciferase downregulation) | GFP signal in confocal images ([2]; live cells treated with CPP/siGFP complexes) | stability of complexes to proteinase K (in words) (Proteinase K) | hemolytic activity of free peptide (in words) (murine red blood cells)
CCCCCCCCCCCCCCCCCC(=O)N[C@@H](Cc1c[nH]cn1)C(=O)N[C@@H](Cc1c[nH]cn1)C(=O)N[C@@H](Cc1c[nH]cn1)C(=O)N[C@@H](Cc1c[nH]cn1)C(=O)N[C@@H](Cc1c[nH]cn1)C(=O)N[C@@H](Cc1c[nH]cn1)C(=O)NCC(=O)NCCC[C@H](N)C(=O)N[C@H](C(=O)N[C@@H](CC(C)C)C(=O)N[C@@H](CC(C)C)C(=O)N[C@@H](CCCCN)C(=O)N[C@@H](C)C(=O)N[C@@H](CC(C)C)C(=O)N[C@@H](CCCCN)C(=O)N[C@@H](C)C(=O)N[C@@H](CC(C)C)C(=O)N[C@@H](C)C(=O)N[C@@H](CCCCN)C(=O)N[C@@H](C)C(=O)N[C@H](C(=O)N[C@@H](CC(C)C)C(N)=O)[C@@H](C)CC)[C@@H](C)CC [NF704] (I: H-[Orn]ILLKALKALAKAIL-NH2 / II: Stearoyl-HHHHHHG; amide I:1-II:C) | 82% | 19% | 40% | lower efficiency than H6-C20 | low accessibility of siRNA | not as resistant to heparin displacement as H6^1-C20 | 10 µM |  |  |  |  |  | 
CCCCCCCCCCCCCCCCCC(=O)N[C@@H](C)C(=O)NCC(=O)N[C@@H](Cc1ccc(O)cc1)C(=O)N[C@@H](CC(C)C)C(=O)N[C@@H](CC(C)C)C(=O)NCC(=O)N[C@@H](CCCCNC(=O)[C@H](CCCCNC(=O)[C@H](CCCCNC(=O)CCC(=O)NCCN(C)CCNc1ccnc2cc(C(F)(F)F)ccc12)NC(=O)CCC(=O)NCCN(C)CCNc1ccnc2cc(C(F)(F)F)ccc12)NC(=O)[C@H](CCCCNC(=O)CCC(=O)NCCN(C)CCNc1ccnc2cc(C(F)(F)F)ccc12)NC(=O)CCC(=O)NCCN(C)CCNc1ccnc2cc(C(F)(F)F)ccc12)C(=O)N[C@H](C(=O)N[C@@H](CC(N)=O)C(=O)N[C@@H](CC(C)C)C(=O)N[C@@H](CCCCN)C(=O)N[C@@H](C)C(=O)N[C@@H](CC(C)C)C(=O)N[C@@H](C)C(=O)N[C@@H](C)C(=O)N[C@@H](CC(C)C)C(=O)N[C@@H](C)C(=O)N[C@@H](CCCCN)C(=O)N[C@@H](CCCCN)C(=O)N[C@H](C(=O)N[C@@H](CC(C)C)C(N)=O)[C@@H](C)CC)[C@@H](C)CC [PF6, reference compound] | 84% |  | approximately 70% | highest |  | only about a half of that in NF55/siRNA complexes |  | most efficient peptides even at low MRs | pH-dependent | 10.4 nM | detected GFP signal was the lowest | significantly lower stability to longer exposure to enzyme | most hemolytic
